# Measured values reported in patent publication US6844365B2, “Substances for use in treating psoriasis” (Laboratoire Medidom S.A., priority 2000, dated 2005).
# Legend:
# [1] = test system: patients with mild to moderate psoriatic arthritis; assay: Clinical trial of Artrodar (diacerein) in psoriasis with mild to moderate psoriatic arthritis; type: in vivo, human; settings: for Ritchie articular index, hip sx: baseline Ritchie 2
# Procedure: The aim of this study was to assess the efficacy and safety of diacerein in the treatment of psoriasis with mild to moderate psoratic arthritis.
# The investigational drug, Artrodar® (Laboratoire Medidom S. A. (Geneva)), is a size 1 hard gelatin capsule.
# Ten patients satisfying all the inclusion and exclusion criteria indicated below were tested.
# Male or female patients over 18 years of age with • cutaneous involvement defined by the psoriasis area and severity index (PASI) (<15); • persistent negative latex test or ELISA for rheumatoid factors; • established diagnosis of mild to moderate severity psoriatic arthritis of at least 3 months duration characterized by oligoarthritis (<4 involved joints) and/or spondyloarthritis; • normal values for haematology and clinical chemistry values (ESR 1 h<30 mm, WBC with leucocyte differential count, RBC, Hb ([…]), platelets, creatinine, transaminases, alkaline phosphatase, bilirubin); • normal or drug-controlled blood pressure values; • failure to respond to topical (including emollients and coal tar) and phototherapy; • evidence of medically approved contraceptive methods in women of childbearing age; • written informed consent from each patient;
# Exclusion criteria: • patient under 18 years of age; • positive rheumatoid factor (RF) or antinuclear antibodies (ANA) >1:80; • history of inflammatory bowel disease or evidence of another rheumatologic disorder; • ascertained individual sensitivity to diacerein or any of the components in the capsule; • chronic illness that, in the opinion of the Investigator, would limit successful participation in the trial; • treatment with slow acting drugs and/or corticosteroids during the month prior to study start; • patient who, in the judgement of the Investigator, […]. Treatment
# Treatment was 2×50 mg capsules of Artrodar® (each capsule contains 50 mg diacerein) taken orally per day for 6 months.
# One capsule was to be taken in the afternoon after lunch while the other was to be taken in the evening after dinner.
# No slow acting disease modifying drugs for psoriatic arthritis or corticosteroids were allowed during one month prior to the start of the study and throughout the study.
# Treatment with NSAIDs, analgesics and other drugs was kept constant during the study and the doses used were recorded every week.
# The following were assessed at baseline and at regular intervals during the study: • The PASI index (Fredriksson and Petterson, 1978)^i for assessing cutaneous involvement. • Pain on activity (target joint) assessed using the VAS. • Ritchie articular index.
# All adverse events either observed by the Investigator or reported by […] were recorded.
# [2] = cited from earlier work
# IL-8 = IL-8 release from keratinocytes by ELISA; type: cell-based, human
# Procedure: (§1) UV-B radiation was delivered with a battery of lamps (TL 20W/12RS UV-B Philips Medical) before and after treatment with diacerein.
# (§2) In other experiments, UVB irradiation was delivered only after diacerein addition.
# (§3) Before irradiation, the cells were washed once with PBS and irradiated in presence of PBS.
# (§4) Controls were sham irradiated for identical periods as measured by International Light Research Radiometer (Newburyport, Mass.).
# (§5) Quantitation of cytokine levels was performed by a quantitative two-site enzyme immunoassay according to manufacturer's instructions, using ELISA kits for IL-1, IL-6, IL-8 and TNF-α.
# (§6) The sample concentration was determined by absorbance at 450 nm with the correction wavelength set at 540 nm.
# As TNF-α is a potent inducer of IL-8 in keratinocytes and plays an important role in the pathogenesis of psoriasis, the effect of diacerein on IL-8 was also evaluated after stimulating keratinocytes with TNF-α.
# prostaglandin PGE2 = settings: cited from earlier work
# IL-6, TNF-α and LIF = settings: prior knowledge; cited from earlier work
# TNF-α = TNF-α release from keratinocytes by ELISA; type: cell-based, human; settings: 24 hours after UVB irradiation
# Procedure: as §1, §2, §3, §4, §5, §6
# As mentioned above, TNF-α is of great relevance in the pathomechanisms of psoriasis. Therefore, we wanted to evaluate the effect of diacerein on the release of this cytokine from human keratinocytes.
# [3] = test system: cytokines of the IL-1 family, especially IL-1β; settings: prior knowledge; cited from earlier work
# IL-6 = IL-6 release from keratinocytes by ELISA; type: cell-based, human
# Procedure: as §1, §2, §3, §4, §5, §6
# No constitutive levels of IL-6 are normally detected in human keratinocytes.
# Therefore, IL-6 release was stimulated by UVB irradiation.
# IL-1 = IL-1 release from keratinocytes by ELISA; type: cell-based, human
# Procedure: as §1, §2, §3, §4, §5, §6
# IL-1 is constitutively expressed in human keratinocytes. IL-1 release was measured after the addition of increasing doses of diacerein.
# human keratinocytes = assay: Viability of keratinocytes by trypan blue exclusion; type: cell-based; settings: increasing doses, 24 and 96 hours, except 100 and 200 μM at 96 hours
# Procedure: Human epidermal keratinocytes were obtained from foreskin by dispase II (5 mg/ml for 60 minutes at 37° C., Boehringer Mannheim, Germany) separation of epidermal sheets.
# The epidermis was incubated in 0.25% trypsin/0.02% EDTA for 20 minutes a 37° C. and mechanically disaggregated.
# The epidermal cell suspensions were plated (2.5×10^4/cm^2) on mytomicin C-treated 3T3-J2 cells (2.4×10^4/cm^2), ATCC, Rockville, Md., USA) and cultured in 5% CO2 humidified atmosphere in the keratinocyte growth medium: Dulbecco's modified Eagle's medium and Ham's F12 media (3:1 mixture, Biochrom KG, Berlin, Germany) containing fetal calf serum (10%, ICN Biomedicals, Aurora, Ohio), insulin ([…], Sigma, St.Louis, Mo., USA), transferrin ([…], Sigma), adenine (0.18 mM, Sigma), hydrocortisone ([…], Sigma), triiodothyronine (20 pM, Sigma), cholera toxin (0.1 nM, Sigma), epidermal growth factor (10 ng/ml, Sigma), 4 mM glutamine (Sigma), and penicillin/streptomycin (50 IU/ml, Biochrom.). […]
# Cell viability was evaluated by trypan blue exclusion.
# In order to understand the effects of diacerein on human keratinocytes, a possible alteration of vital parameters was evaluated by the trypan blue exclusion.
# [4] = of 7 patients, 2×50 mg orally per day
# [5] = patient one, 2nd visit, improved from Ritchie 1
# [6] = patient three, 2nd visit, improved from Ritchie 2
structure (smiles),measurement,setting,value
"CC(=O)Oc1cccc2c1C(=O)c1c(OC(C)=O)cc(C(=O)O)cc1C2=O [diacerein, 4,5-bis(acetyloxy)-9,10-dihydro-9,10-dioxo-2-anthracene carboxylic acid]",adverse effect reported,"[1]; all treated patients, caused drop-out",diarrhea in one patient
same,number of patients who responded after 1 month,[1]; [4],4 patients
same,number of patients who responded after 2 months,[1]; [4],2 patients
same,number of patients who responded after 3 months,[1]; [4],1 patients
same,psoriasis status,"[1]; patient five, 2nd visit Jul. 14, 2000, 1 month treatment, baseline PASI 10.1",Psoriasis: status unchanged.
same,Pain on VAS,"[1]; patient five, 2nd visit, baseline 60 mm",Pain on VAS = 50 mm
same,"Ritchie articular index, knee pain (bilateral)","[1]; patient five, 2nd visit, baseline Ritchie 1",had knee pain (bilateral) (Ritchie 1).
same,Responder,"[1]; patient five, treatment period only 1 month",No as
same,Responder,[1]; patient four,Yes
same,PASI score,"[1]; patient four, 2nd visit Jul. 13, 2000, baseline 13.6",PASI score = 6.7
same,Pain on VAS,"[1]; patient four, 2nd visit, baseline 50 mm",Pain on VAS = 50 mm.
same,"Ritchie articular index, shoulder sx","[1]; patient four, 2nd visit, baseline Ritchie 1",Shoulder sx: Unchanged
same,"Ritchie articular index, hip sx","[1]; patient four, 2nd visit",Hip sx: Unchanged
same,"Ritchie articular index, TMC dx","[1]; patient four, 2nd visit, improved from Ritchie 1",TMC dx: Improved from Ritchie 1 to 0
same,PASI score,"[1]; patient four, 3rd visit Aug. 30, 2000, baseline 13.6",PASI score = 2.2
same,Pain on VAS,"[1]; patient four, 3rd visit, baseline 50 mm",Pain on VAS = 50 mm.
same,"Ritchie articular index, shoulder sx","[1]; patient four, 3rd visit, baseline Ritchie 1",Shoulder sx: Unchanged
same,"Ritchie articular index, hip sx","[1]; patient four, 3rd visit",Hip sx: Unchanged
same,"Ritchie articular index, TMC dx","[1]; patient four, 3rd visit, improved from Ritchie 1",TMC dx: Improved from Ritchie 1 to 0
same,Responder,[1]; patient one (stopped after 4 weeks),Yes
same,PASI score,"[1]; patient one, 2nd visit Aug. 18, 2000, after stopping treatment in mid-July and mild return, baseline 4.8",PASI score = 2.4
same,"Ritchie articular index, TMC sx",[1]; [5],TMC sx improved from Ritchie 1 to 0
same,"Ritchie articular index, shoulder sx",[1]; [5],Shoulder sx: improved from Ritchie 1 to 0
same,"Ritchie articular index, tibiotarsal joint sx","[1]; patient one, 2nd visit, improved from Ritchie 2",Tibiotarsal joint sx: improved from Ritchie 2 to 0.
same,Responder,[1]; patient seven,Yes
same,PASI score,"[1]; patient seven, 2nd visit Jun. 6, 2000, baseline 9.6",PASI score = 6.6
same,Pain on the VAS,"[1]; patient seven, 2nd visit, baseline 60 mm",Pain on the VAS = 50 mm.
same,PASI score,"[1]; patient seven, 3rd visit Jul. 3, 2000, baseline 9.6",PASI = score 5.0
same,Pain on the VAS,"[1]; patient seven, 3rd visit, baseline 60 mm",Joint swelling decreased in all joints. Pain on the VAS = 40 mm.
same,PASI score,"[1]; patient seven, 4th visit Aug. 18, 2000, baseline 9.6",PASI score = 0.9
same,Responder,[1]; patient six,Yes
same,psoriasis status,"[1]; patient six, 2nd visit, after 2 months treatment, baseline PASI 8.1",disappeared in June.
same,PASI score,"[1]; patient six, 3rd visit Jul. 19, 2000 (psoriasis reappeared), baseline 8.1",PASI score = 3.9
same,"Ritchie articular index, right knee","[1]; patient six, 4th visit, baseline Ritchie 3",0
same,Pain on the VAS,"[1]; patient six, right knee, 3rd visit, baseline 50 mm",VAS = 50 mm.
same,pain (VAS),"[1]; patient six, right knee, 4th visit Aug. 29, 2000, baseline 50 mm",1 cm
same,Responder,[1]; patient three,Yes
same,PASI score,"[1]; patient three, 2nd visit Jul. 20, 2000, baseline 6.9",PASI score = 6.9
same,"Ritchie articular index, wrist dx",[1]; [6],Wrist dx: improved from Ritchie 2 to 1.
same,"Ritchie articular index, wrist sx",[1]; [6],Wrist sx: improved from Ritchie 2 to 0
same,"Ritchie articular index, wrist sx","[1]; patient three, 3rd visit",Wrist sx: Ritchie 0
same,Morning stiffness,"[1]; patient three, 3rd visit Aug. 24, 2000",Morning stiffness = 30 minutes.
same,PASI score,"[1]; patient three, 3rd visit Aug. 24, 2000, baseline 6.9",PASI score = 3.9
same,"Ritchie articular index, wrist dx","[1]; patient three, 3rd visit, improved from Ritchie 1",Arthritis: Wrist dx: improved from Ritchie 1 to 0.
same,Responder,"[1]; patient two (stopped after 1 month, diarrhea)",Yes
same,PASI score,"[1]; patient two, 2nd visit Jul. 20, 2000, baseline 0.6",PASI score = 0.1
same,"Ritchie articular index, 2nd MCF dx","[1]; patient two, 2nd visit, printed as improved from Ritchie 1, baseline Ritchie 2","Arthritis: 2nd MCF, dx, improved from Ritchie 1 to Ritchie 0."
same,patients who responded to treatment (improvement on PASI score),"[1]; seven patients who took Diacerein one month or more, 2×50 mg capsules orally per day",100%
same,carcinogenic potential,[2]; extensive toxicology studies,does not show carcinogenic potential
same,tolerability,"[2]; prior use in osteoarthritis and rheumatoid arthritis, toxicology studies",well tolerated
same,doses with significant reduction of UVB-induced IL-8 levels,IL-8; 24 hours after UVB irradiation,5 to 100 µM
same,effect of timing of addition on IL-8 release,IL-8; UVB-irradiated keratinocytes,more effective when given both before and after UVB irradiation
same,doses down-regulating TNF-α-induced IL-8 release,"IL-8; keratinocytes stimulated with TNF-α, 24 hours",50 to 200 µM
same,effect on IL-8,"IL-8; normal conditions, no stimulus",unaffected
same,gastrotoxic potential,prostaglandin PGE2; inferred from no effect on PGE2 production,does not have gastrotoxic potential
same,effect on prostaglandin PGE2 production,prostaglandin PGE2; prior knowledge,not to effect prostaglandin PGE2 production
same,effect on IL-6 and other cytokines such as TNF-α and LIF,"IL-6, TNF-α and LIF",inhibit IL-6 and other cytokines such as TNF-α and LIF
same,doses down-regulating UVB-induced TNF-α release,TNF-α,50 to 200 µM
same,"effect on synthesis and activity of pro-inflammatory catabolic cytokines of the IL-1 family, especially IL-1β",[3],inhibit the synthesis and activity
same,effect on UVB-induced IL-6 release,IL-6; 24 hours after irradiation,caused a reduction
same,effect of timing of addition on IL-6 release,IL-6; UVB-irradiated keratinocytes,significantly more effective when added both before and after UVB light
same,dose giving significant reduction in IL-6 release,IL-6; added both before and after UVB,1 µM
same,dose necessary for down regulation of IL-6,IL-6; administered only before UVB,5 µM
same,effect on IL-6 levels,"IL-6; basic conditions, no UVB",did not affect
same,effect on UVB-induced increase in IL-1 release,IL-1; 24 hours after UVB irradiation,prevented this effect
same,dose down-regulating IL-1 release almost to baseline levels,IL-1; UVB-irradiated keratinocytes,0.1 µM
same,effect of timing of administration on IL-1 release,IL-1; before versus after UVB irradiation,more powerful when administered before UVB irradiation
same,effect on constitutive levels of IL-1,"IL-1; normal conditions, no UVB",did not affect
same,alteration of keratinocyte viability,human keratinocytes,did not cause any significant alteration
